Laboratory results reported in the supplement of paper PMC11451515.

Experiments:
Details in all cases: 48 h
SEM cells [1] = assay: AUC of viability dose-response curve (% viability x log10 dose units); higher = less sensitive
How it was run: (§1)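 Area under the curve was integrated by trapezoidal rule from a log-logistic fit of normalised viability, with curves exceeding full viability scaled and quality-control failures removed. The fit had four parameters over log10 doses. Viability came from CellTiter-Glo One luminescence, normalised per plate to DMSO and cell-free wells, after leukemia cells adapted to each medium (500 or 1000 cells/well, 1536-well plates) were exposed to library compounds in DMSO for 48 h at 37°C. The 11 threefold doses ran from 47 μM to 0.79 nM.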

NOMO1 [2] = assay: as above
How it was run: as §1

P12-Ichikawa [3] = assay: as above
How it was run: as §1

SEM cells [4] = assay: cell viability relative to DMSO control; higher = less cytotoxic
How it was run: (§2)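 Viability is a per-plate percentage relative to DMSO wells, with cell-free wells as background. CellTiter-Glo One luminescence was read after 48 h at 37°C on 1536-well plates (5 μl) of NOMO1 or SEM (500 cells/well) or P12-Ichikawa (1000 cells/well) leukemia cells. The cells had been adapted for at least four passages in each medium and pin-dosed with library compounds in DMSO from 47 μM to 0.79 nM in 11 threefold steps.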

NOMO1 [5] = assay: as above
How it was run: as §2

P12-Ichikawa [6] = assay: as above
How it was run: as §2

C=C(C)[C@H]1Cc2c(ccc3c2O[C@@H]2COc4cc(OC)c(OC)cc4[C@@H]2C3=O)O1
AUC of viability dose-response curve
Details	NOMO1 [2]	P12-Ichikawa [3]	SEM cells [1]
HPLM + 10% dialyzed FBS	389	376	370
RPMI 5 mM glucose + 10% FBS	399	335	337
RPMI 5 mM glucose + 10% dialyzed FBS	413	366	379

cell viability [%]
Details	NOMO1 [5]	P12-Ichikawa [6]	SEM cells [4]
HPLM + 10% dialyzed FBS, 0.000781 µM	103	101	96
HPLM + 10% dialyzed FBS, 0.00234 µM	102	108	85.9
HPLM + 10% dialyzed FBS, 0.00702 µM	120	107	103
HPLM + 10% dialyzed FBS, 0.0211 µM	110	111	85.1
HPLM + 10% dialyzed FBS, 0.0632 µM	124	95.9	75.5
HPLM + 10% dialyzed FBS, 0.19 µM	116	118	92.8
HPLM + 10% dialyzed FBS, 0.569 µM	107	90.6	104
HPLM + 10% dialyzed FBS, 1.71 µM	89.2	76.5	94.5
HPLM + 10% dialyzed FBS, 5.12 µM	52.6	56.1	57.1
HPLM + 10% dialyzed FBS, 15.4 µM	37.3	19.7	22.6
HPLM + 10% dialyzed FBS, 46.1 µM	28.8	17.7	14.2
RPMI 5 mM glucose + 10% FBS, 0.000781 µM	105	108	79.7
RPMI 5 mM glucose + 10% FBS, 0.00234 µM	118	113	94.7
RPMI 5 mM glucose + 10% FBS, 0.00702 µM	105	104	89.6
RPMI 5 mM glucose + 10% FBS, 0.0211 µM	106	106	108
RPMI 5 mM glucose + 10% FBS, 0.0632 µM	109	88.2	60.1
RPMI 5 mM glucose + 10% FBS, 0.19 µM	102	99.5	89
RPMI 5 mM glucose + 10% FBS, 0.569 µM	102	73.6	87.8
RPMI 5 mM glucose + 10% FBS, 1.71 µM	102	60.3	80.2
RPMI 5 mM glucose + 10% FBS, 5.12 µM	63.8	44.3	40.3
RPMI 5 mM glucose + 10% FBS, 15.4 µM	23.9	17.3	15.8
RPMI 5 mM glucose + 10% FBS, 46.1 µM	20.4	10.1	10
RPMI 5 mM glucose + 10% dialyzed FBS, 0.000781 µM	99.3	98.6	101
RPMI 5 mM glucose + 10% dialyzed FBS, 0.00234 µM	101	106	106
RPMI 5 mM glucose + 10% dialyzed FBS, 0.00702 µM	98.4	110	125
RPMI 5 mM glucose + 10% dialyzed FBS, 0.0211 µM	99.8	107	106
RPMI 5 mM glucose + 10% dialyzed FBS, 0.0632 µM	104	102	77
RPMI 5 mM glucose + 10% dialyzed FBS, 0.19 µM	104	95.7	109
RPMI 5 mM glucose + 10% dialyzed FBS, 0.569 µM	87.8	76.6	91.4
RPMI 5 mM glucose + 10% dialyzed FBS, 1.71 µM	98.7	69.3	86.7
RPMI 5 mM glucose + 10% dialyzed FBS, 5.12 µM	81.5	59.9	40.4
RPMI 5 mM glucose + 10% dialyzed FBS, 15.4 µM	29.5	34	23.1
RPMI 5 mM glucose + 10% dialyzed FBS, 46.1 µM	24.1	24.1	13.3

C=C[C@H]1CN2CC[C@H]1C[C@H]2[C@H](O)c1ccnc2ccc(OC)cc12
AUC of viability dose-response curve
Details	NOMO1 [2]	P12-Ichikawa [3]	SEM cells [1]
HPLM + 10% dialyzed FBS	464	458	472
RPMI 5 mM glucose + 10% FBS	443	466	442
RPMI 5 mM glucose + 10% dialyzed FBS	469	446	431

cell viability [%]
Details	NOMO1 [5]	P12-Ichikawa [6]	SEM cells [4]
HPLM + 10% dialyzed FBS, 0.000781 µM	116	100	91.2
HPLM + 10% dialyzed FBS, 0.00234 µM	89.2	98.6	99.2
HPLM + 10% dialyzed FBS, 0.00702 µM	96.3	93.6	93.3
HPLM + 10% dialyzed FBS, 0.0211 µM	109	104	97
HPLM + 10% dialyzed FBS, 0.0632 µM	105	96.3	106
HPLM + 10% dialyzed FBS, 0.19 µM	98.4	100	116
HPLM + 10% dialyzed FBS, 0.569 µM	115	104	104
HPLM + 10% dialyzed FBS, 1.71 µM	96.4	105	86
HPLM + 10% dialyzed FBS, 5.12 µM	112	108	125
HPLM + 10% dialyzed FBS, 15.4 µM	101	110	96.8
HPLM + 10% dialyzed FBS, 46.1 µM	86.8	100	74.3
RPMI 5 mM glucose + 10% FBS, 0.000781 µM	86.5	95.9	90.8
RPMI 5 mM glucose + 10% FBS, 0.00234 µM	87.5	104	88.7
RPMI 5 mM glucose + 10% FBS, 0.00702 µM	84.3	99.4	84
RPMI 5 mM glucose + 10% FBS, 0.0211 µM	87.8	95.7	89.7
RPMI 5 mM glucose + 10% FBS, 0.0632 µM	103	93.6	105
RPMI 5 mM glucose + 10% FBS, 0.19 µM	97.9	101	99.2
RPMI 5 mM glucose + 10% FBS, 0.569 µM	98.7	106	104
RPMI 5 mM glucose + 10% FBS, 1.71 µM	103	109	90.7
RPMI 5 mM glucose + 10% FBS, 5.12 µM	99.5	129	102
RPMI 5 mM glucose + 10% FBS, 15.4 µM	97.6	111	94.5
RPMI 5 mM glucose + 10% FBS, 46.1 µM	76.4	75.4	50.4
RPMI 5 mM glucose + 10% dialyzed FBS, 0.000781 µM	92.3	89.9	85.2
RPMI 5 mM glucose + 10% dialyzed FBS, 0.00234 µM	103	89	98.2
RPMI 5 mM glucose + 10% dialyzed FBS, 0.00702 µM	98.9	91.7	93.4
RPMI 5 mM glucose + 10% dialyzed FBS, 0.0211 µM	96.1	93.1	93.8
RPMI 5 mM glucose + 10% dialyzed FBS, 0.0632 µM	104	96.3	92
RPMI 5 mM glucose + 10% dialyzed FBS, 0.19 µM	108	96.7	96.9
RPMI 5 mM glucose + 10% dialyzed FBS, 0.569 µM	113	94.1	80
RPMI 5 mM glucose + 10% dialyzed FBS, 1.71 µM	105	95.3	80.7
RPMI 5 mM glucose + 10% dialyzed FBS, 5.12 µM	106	102	90.9
RPMI 5 mM glucose + 10% dialyzed FBS, 15.4 µM	105	101	102
RPMI 5 mM glucose + 10% dialyzed FBS, 46.1 µM	68.8	81	70.2
